The text below walks through data of ChEMBL document CHEMBL4393657, “Tetrazole hybrids and their antifungal activities” (2019).

As a reminder, the MIC is the smallest concentration in the dilution series that meets the test's criterion for growth inhibition.

Common to all, as to format: functional
One test deals with Cryptococcus neoformans. The test can be described thus: Antifungal activity against Cryptococcus neoformans LA314 assessed as reduction in fungal cell growth incubated for 48 hrs by broth microdilution method. The settings on record: LA314, 48 h.
A further test relates to Nakaseomyces glabratus. The test can be described thus: Antifungal activity against Candida glabrata assessed as reduction in fungal cell growth incubated for 48 hrs by broth microdilution method. A general note: In broth dilution the organism is exposed to a series of concentrations in liquid medium.
Another test concerns Candida parapsilosis. Kind of test: Antifungal activity against Candida parapsilosis ATCC 22019 assessed as reduction in fungal cell growth incubated for 48 hrs by broth microdilution method. The settings on record: Lodderomyces parapsilosis, ATCC 22019, 48 h.
The next test relates to Pichia kudriavzevii. Kind of test: Antifungal activity against Candida krusei assessed as reduction in fungal cell growth incubated for 48 hrs by broth microdilution method.
Another test concerns Candida albicans. Kind of test: Antifungal activity against Candida albicans assessed as reduction in fungal cell growth incubated for 48 hrs by broth microdilution method.
Another test relates to Candida tropicalis. The test can be described thus: Antifungal activity against Candida tropicalis assessed as reduction in fungal cell growth incubated for 48 hrs by broth microdilution method.
The subject of the next test is Aspergillus niger. The test can be described thus: Antifungal activity against Aspergillus niger assessed as reduction in fungal cell growth incubated for 72 hrs by broth microdilution method.

Converted amounts (≈) assume the structure as drawn.

As to `OC(Cn1cncn1)(Cn1nnc(CCN2CCN(c3ccccc3)CC2)n1)c1ccc(F)cc1F` (stereo not given), the MIC in the test on Cryptococcus neoformans, in the test with Nakaseomyces glabratus, with Candida parapsilosis, in the test on Pichia kudriavzevii, in the test on Candida albicans and in the test with Candida tropicalis was 1 to 16 µg/mL (≈ 2.02 to 32.3 µM) throughout. Also, in the test with Aspergillus niger, the minimum inhibitory concentration (MIC) was 1 to 16 µg/mL (≈ 2.02 to 32.3 µM).

Take `C[C@H](n1nnc(CCN2CCN(c3cccc(C(F)(F)F)c3)CC2)n1)[C@](O)(Cn1cncn1)c1ccc(F)cc1F`: the MIC in the test on Cryptococcus neoformans, with Nakaseomyces glabratus, in the test with Candida parapsilosis, with Pichia kudriavzevii, in the test on Candida albicans and in the test with Candida tropicalis was 0.25 to 16 µg/mL (≈ 0.433 to 27.7 µM) each time. Further, the MIC with Aspergillus niger was in the range of 0.25 to 16 µg/mL (≈ 0.433 to 27.7 µM).

For the compound `CC(n1nnc(CCN2CCN(c3cccc(Cl)c3)CC2)n1)C(O)(Cn1cncn1)c1ccc(F)cc1F` (stereo not given), the MIC in the test on Cryptococcus neoformans, with Nakaseomyces glabratus, in the test with Candida parapsilosis, in the test on Pichia kudriavzevii, in the test with Candida albicans and with Candida tropicalis was 1 to 16 µg/mL (≈ 1.84 to 29.4 µM) throughout. For the same compound, the MIC with Aspergillus niger fell in the range of 1 to 16 µg/mL (≈ 1.84 to 29.4 µM).

As to `COc1ccccc1N1CCN(CCc2nnn(C(C)C(O)(Cn3cncn3)c3ccc(F)cc3F)n2)CC1` (stereo not given), the MIC in the test with Cryptococcus neoformans, in the test on Nakaseomyces glabratus, in the test with Candida parapsilosis, with Pichia kudriavzevii, in the test on Candida albicans and in the test with Candida tropicalis was 1 to 16 µg/mL (≈ 1.85 to 29.7 µM) throughout. Besides, the MIC with Aspergillus niger lay in the range of 1 to 16 µg/mL (≈ 1.85 to 29.7 µM).

`OC(Cn1cncn1)(Cn1nnc(CCN2CCN(C(c3ccccc3)c3ccccc3)CC2)n1)c1ccc(F)cc1F` (stereo not given): the MIC in the test on Cryptococcus neoformans, in the test with Nakaseomyces glabratus, in the test on Candida parapsilosis, in the test on Pichia kudriavzevii, with Candida albicans and in the test with Candida tropicalis was 1 to 16 µg/mL (≈ 1.71 to 27.3 µM) in each case. Besides, the MIC in the test with Aspergillus niger was 1 to 16 µg/mL (≈ 1.71 to 27.3 µM).

Consider `OC(Cn1cncn1)(Cn1nnc(CCN2CCN(c3c(Cl)cccc3Cl)CC2)n1)c1ccc(F)cc1F` (stereo not given), for which the MIC with Cryptococcus neoformans, in the test on Nakaseomyces glabratus, in the test with Candida parapsilosis, with Pichia kudriavzevii, with Candida albicans and in the test on Candida tropicalis was 1 to 16 µg/mL (≈ 1.77 to 28.3 µM) throughout. The MIC with Aspergillus niger lay in the range of 1 to 16 µg/mL (≈ 1.77 to 28.3 µM).

Take `CCCCOc1ccccc1N1CCN(CCc2nnnn2CC(O)(Cn2cncn2)c2ccc(F)cc2F)CC1` (stereo not given): the MIC in the test with Cryptococcus neoformans, in the test with Nakaseomyces glabratus, in the test on Candida parapsilosis, in the test with Pichia kudriavzevii, in the test on Candida albicans and in the test on Candida tropicalis was 0.5 to 16 µg/mL (≈ 0.881 to 28.2 µM) in each case. Also, in the test with Aspergillus niger, the minimum inhibitory concentration (MIC) fell in the range of 0.5 to 16 µg/mL (≈ 0.881 to 28.2 µM).

Take `CC(n1nnc(CCN2CCN(c3ccccc3)CC2)n1)C(O)(Cn1cncn1)c1ccc(F)cc1F` (stereo not given): the MIC in the test with Cryptococcus neoformans, in the test with Nakaseomyces glabratus, in the test with Candida parapsilosis, in the test on Pichia kudriavzevii, in the test on Candida albicans and in the test with Candida tropicalis was 1 to 16 µg/mL (≈ 1.96 to 31.4 µM) in each case. For the same compound, the MIC in the test with Aspergillus niger lay in the range of 1 to 16 µg/mL (≈ 1.96 to 31.4 µM).

Turning to `COc1ccc(N2CCN(CCc3nnn(CC(O)(Cn4cncn4)c4ccc(F)cc4F)n3)CC2)cc1` (stereo not given), the MIC in the test with Cryptococcus neoformans, in the test on Nakaseomyces glabratus, with Candida parapsilosis, with Pichia kudriavzevii, in the test with Candida albicans and with Candida tropicalis was 1 to 16 µg/mL (≈ 1.9 to 30.4 µM) each time. The MIC in the test with Aspergillus niger lay within 1 to 16 µg/mL (≈ 1.9 to 30.4 µM).

Take `CC(n1nnnc1CCN1CCN(Cc2ccccc2)CC1)C(O)(Cn1cncn1)c1ccc(F)cc1F` (stereo not given): the MIC in the test on Cryptococcus neoformans, in the test on Nakaseomyces glabratus, in the test on Candida parapsilosis, with Pichia kudriavzevii, in the test with Candida albicans and in the test with Candida tropicalis was 0.5 to 16 µg/mL (≈ 0.955 to 30.6 µM) throughout. Besides, the MIC with Aspergillus niger was 0.5 to 16 µg/mL (≈ 0.955 to 30.6 µM).

In the case of `OC(Cn1cncn1)(Cn1nnnc1CCN1CCN(c2cccc(Cl)c2)CC1)c1ccc(F)cc1F` (stereo not given), the MIC in the test on Cryptococcus neoformans, in the test on Nakaseomyces glabratus, in the test on Candida parapsilosis, in the test on Pichia kudriavzevii, with Candida albicans and in the test on Candida tropicalis was 0.5 to 16 µg/mL (≈ 0.943 to 30.2 µM) in each case. In the test with Aspergillus niger, the MIC lay within 0.5 to 16 µg/mL (≈ 0.943 to 30.2 µM).

Turning to `C[C@H](n1nnnc1CCN1CCN(c2cccc(Cl)c2)CC1)[C@](O)(Cn1cncn1)c1ccc(F)cc1F`, the MIC in the test with Cryptococcus neoformans, in the test with Nakaseomyces glabratus, in the test with Candida parapsilosis, in the test with Pichia kudriavzevii, in the test with Candida albicans and in the test with Candida tropicalis was 0.12 to 16 µg/mL (≈ 0.221 to 29.4 µM) throughout. For the same compound, the MIC in the test with Aspergillus niger was 0.12 to 16 µg/mL (≈ 0.221 to 29.4 µM).

As for `OC(Cn1cncn1)(Cn1nnnc1CCN1CCN(c2ccccc2Cl)CC1)c1ccc(F)cc1F` (stereo not given), the MIC in the test on Cryptococcus neoformans, with Nakaseomyces glabratus, in the test with Candida parapsilosis, in the test on Pichia kudriavzevii, with Candida albicans and in the test on Candida tropicalis was 0.5 to 16 µg/mL (≈ 0.943 to 30.2 µM) in each case. Besides, the MIC in the test on Aspergillus niger lay within 0.5 to 16 µg/mL (≈ 0.943 to 30.2 µM).

Consider `CC(n1nnnc1CCN1CCN(c2ccccn2)CC1)C(O)(Cn1cncn1)c1ccc(F)cc1F` (stereo not given), for which the MIC in the test on Cryptococcus neoformans, with Nakaseomyces glabratus, in the test on Candida parapsilosis, with Pichia kudriavzevii, with Candida albicans and in the test with Candida tropicalis was 0.5 to 16 µg/mL (≈ 0.979 to 31.3 µM) in each case. For the same compound, the MIC in the test with Aspergillus niger was in the range of 0.5 to 16 µg/mL (≈ 0.979 to 31.3 µM).

As for `C[C@H](n1nnnc1CCN1CCN(c2ccccc2Cl)CC1)[C@](O)(Cn1cncn1)c1ccc(F)cc1F`, the MIC with Cryptococcus neoformans, in the test with Nakaseomyces glabratus, with Candida parapsilosis, in the test on Pichia kudriavzevii, with Candida albicans and with Candida tropicalis was 0.12 to 16 µg/mL (≈ 0.221 to 29.4 µM) in each case. Moreover, in the test on Aspergillus niger, the MIC was in the range of 0.12 to 16 µg/mL (≈ 0.221 to 29.4 µM).

Take `C[C@H](n1nnnc1CCN1CCN(c2ccccn2)CC1)[C@](O)(Cn1cncn1)c1ccc(F)cc1F`: the MIC in the test on Cryptococcus neoformans, with Nakaseomyces glabratus, in the test with Candida parapsilosis, in the test on Pichia kudriavzevii, in the test on Candida albicans and with Candida tropicalis was 0.12 to 16 µg/mL (≈ 0.235 to 31.3 µM) throughout. For the same compound, the MIC in the test on Aspergillus niger lay within 0.12 to 16 µg/mL (≈ 0.235 to 31.3 µM).

Turning to `CC(n1nnc(CCN2CCN(c3ccc([N+](=O)[O-])cc3)CC2)n1)C(O)(Cn1cncn1)c1ccc(F)cc1F` (stereo not given), the MIC in the test on Cryptococcus neoformans, in the test with Nakaseomyces glabratus, in the test with Candida parapsilosis, in the test on Pichia kudriavzevii, in the test with Candida albicans and with Candida tropicalis was 1 to 16 µg/mL (≈ 1.8 to 28.9 µM) in each case. Besides, in the test on Aspergillus niger, the MIC was 1 to 16 µg/mL (≈ 1.8 to 28.9 µM).

For the compound `OC(Cn1cncn1)(Cn1nnnc1CCN1CCN(c2cccc(C(F)(F)F)c2)CC1)c1ccc(F)cc1F` (stereo not given), the MIC with Cryptococcus neoformans, with Nakaseomyces glabratus, in the test with Candida parapsilosis, in the test on Pichia kudriavzevii, in the test with Candida albicans and in the test on Candida tropicalis was 0.5 to 16 µg/mL (≈ 0.887 to 28.4 µM) in each case. Besides, in the test on Aspergillus niger, the MIC lay within 0.5 to 16 µg/mL (≈ 0.887 to 28.4 µM).

For the compound `COc1ccc(N2CCN(CCc3nnn([C@@H](C)[C@](O)(Cn4cncn4)c4ccc(F)cc4F)n3)CC2)cc1`, the MIC in the test with Cryptococcus neoformans, in the test on Nakaseomyces glabratus, with Candida parapsilosis, in the test with Pichia kudriavzevii, with Candida albicans and in the test with Candida tropicalis was 0.25 to 16 µg/mL (≈ 0.463 to 29.7 µM) in each case. Moreover, the MIC in the test on Aspergillus niger lay in the range of 0.25 to 16 µg/mL (≈ 0.463 to 29.7 µM).

As to `CCCCOc1ccccc1N1CCN(CCc2nnnn2C(C)C(O)(Cn2cncn2)c2ccc(F)cc2F)CC1` (stereo not given), the MIC in the test on Cryptococcus neoformans, with Nakaseomyces glabratus, in the test on Candida parapsilosis, with Pichia kudriavzevii, in the test with Candida albicans and in the test on Candida tropicalis was 0.5 to 16 µg/mL (≈ 0.86 to 27.5 µM) throughout. Moreover, in the test with Aspergillus niger, the MIC lay in the range of 0.5 to 16 µg/mL (≈ 0.86 to 27.5 µM).
